# Assay results as given in patent US10004701B2, “Methods and compositions for treating infection” (UNIVERSITY OF ROCHESTER, priority 2012, dated 2018).
# Where a name gives a salt, the structure may show the parent alone. Read-outs that look alike come from different tables or passages of the source.
# Key:
# Test in all cases: AK assay 384-well format, Prestwick library screening
# [1] = test system: E. faecium; type: cell-based, Enterococcus faecium; settings: 50 μM final drug concentration; for fold induction at 50 µM: Enterococcus faecium, 3 h
# [2] = test system: S. aureus strain USA300-0114; type: cell-based, Staphylococcus aureus; settings: 50 μM final drug concentration; for fold induction at 50 µM: Staphylococcus aureus, USA300, 3 h
# [3] = test system: K. pneumoniae; type: cell-based, Klebsiella pneumoniae; settings: 50 μM final drug concentration; for fold induction at 50 µM: Klebsiella pneumoniae, 3 h
# [4] = test system: A. baumannii strain 98-37-09; type: cell-based, Acinetobacter baumannii; settings: 50 μM final drug concentration; for fold induction at 50 µM: Acinetobacter baumannii, 983709, 3 h
# [5] = test system: P. aeruginosa; type: cell-based, Pseudomonas aeruginosa; settings: 50 μM final drug concentration; for fold induction at 50 µM: Pseudomonas aeruginosa, 3 h
# [6] = test system: E. cloacae; type: cell-based, Enterobacter cloacae; settings: 50 μM final drug concentration; for fold induction at 50 µM: Enterobacter cloacae, 3 h
# [7] = test system: E. coli; type: cell-based, Escherichia coli; settings: 50 μM final drug concentration; for fold induction at 50 µM: Escherichia coli, 3 h
# [8] = planktonic, cutoff for positive 3-fold increase, read-out: AK-based Prestwick Library Screening Results, E. faecium (fold increase in extracellular AK activity)
# [9] = planktonic, cutoff for positive 3-fold increase, read-out: AK-based Prestwick Library Screening Results, S. aureus (fold increase in extracellular AK activity)
# [10] = planktonic, cutoff for positive 3-fold increase, read-out: AK-based Prestwick Library Screening Results, K. pneumoniae (fold increase in extracellular AK activity)
# [11] = planktonic, cutoff for positive 3-fold increase, read-out: AK-based Prestwick Library Screening Results, A. baumannii (fold increase in extracellular AK activity)
# [12] = planktonic, cutoff for positive 3-fold increase, read-out: AK-based Prestwick Library Screening Results, P. aeruginosa (fold increase in extracellular AK activity)
# [13] = planktonic, cutoff for positive 3-fold increase, read-out: AK-based Prestwick Library Screening Results, E. cloacae (fold increase in extracellular AK activity)
# [14] = planktonic, cutoff for positive 3-fold increase, read-out: AK-based Prestwick Library Screening Results, E. coli (fold increase in extracellular AK activity)
# [15] = planktonic E. faecium, positive cutoff 3-fold increase
# [16] = planktonic S. aureus, positive cutoff 3-fold increase
# [17] = planktonic K. pneumoniae, positive cutoff 3-fold increase
# [18] = planktonic A. baumannii, positive cutoff 3-fold increase
# [19] = planktonic P. aeruginosa, positive cutoff 3-fold increase
# [20] = planktonic E. cloacae, positive cutoff 3-fold increase
compound,measurement,setting,value
c1ccc2[nH]c(-c3cscn3)nc2c1 [Tiabendazole],fold induction at 50 µM,[1]; [8],0.5
same,fold induction at 50 µM,[2]; [9],0.6
same,fold induction at 50 µM,[3]; [10],0.4
same,fold induction at 50 µM,[4]; [11],0.5
same,fold induction at 50 µM,[5]; [12],0.6
same,fold induction at 50 µM,[6]; [13],1.3
same,fold induction at 50 µM,[7]; [14],0.6
CCOC(=O)c1ccc(OC(=O)CCCCCN=C(N)N)cc1.CS(=O)(=O)O [Gabexate mesilate],"AK-based Prestwick library screening result, E. faecium (fold increase in extracellular AK activity)",[1]; [15],1.1
same,"AK-based Prestwick library screening result, S. aureus (fold increase in extracellular AK activity)",[2]; [16],1.3
same,"AK-based Prestwick library screening result, K. pneumoniae (fold increase in extracellular AK activity)",[3]; [17],0.9
same,"AK-based Prestwick library screening result, A. baumannii (fold increase in extracellular AK activity)",[4]; [18],1.1
same,"AK-based Prestwick library screening result, P. aeruginosa (fold increase in extracellular AK activity)",[5]; [19],1.1
same,"AK-based Prestwick library screening result, E. cloacae (fold increase in extracellular AK activity)",[6]; [20],1.4
same,"AK-based Prestwick library screening result, E. coli (fold increase in extracellular AK activity)","[7]; planktonic E. coli, positive cutoff 3-fold increase",1.1
COc1ccc2c3c([nH]c2c1)[C@H]1C[C@H]2[C@H](C[C@@H](O)[C@H](OC)[C@H]2C(=O)O)CN1CC3.Cl [Reserpinic acid hydrochloride],"AK-based Prestwick library screening result, E. faecium (fold increase in extracellular AK activity)",[1]; [15],0.9
same,"AK-based Prestwick library screening result, S. aureus (fold increase in extracellular AK activity)",[2]; [16],0.6
same,"AK-based Prestwick library screening result, K. pneumoniae (fold increase in extracellular AK activity)",[3]; [17],0.7
same,"AK-based Prestwick library screening result, A. baumannii (fold increase in extracellular AK activity)",[4]; [18],0.8
same,"AK-based Prestwick library screening result, P. aeruginosa (fold increase in extracellular AK activity)",[5]; [19],0.8
same,"AK-based Prestwick library screening result, E. cloacae (fold increase in extracellular AK activity)",[6]; [20],1.0
same,"AK-based Prestwick library screening result, E. coli (fold increase in extracellular AK activity)","[7]; planktonic E. coli, […]",0.9
CC[N+](C)(CC)CCOC(=O)C1c2ccccc2Oc2ccccc21 [Methantheline bromide],fold induction at 50 µM,"[1]; planktonic E. faecium, positive cutoff 3-fold increase, read-out: AK-based Prestwick library screening result, E. faecium (fold increase in extracellular AK activity)",0.9
same,fold induction at 50 µM,"[2]; planktonic S. aureus, positive cutoff 3-fold increase, read-out: AK-based Prestwick library screening result, S. aureus (fold increase in extracellular AK activity)",0.7
same,fold induction at 50 µM,"[3]; planktonic K. pneumoniae, positive cutoff 3-fold increase, read-out: AK-based Prestwick library screening result, K. pneumoniae (fold increase in extracellular AK activity)",0.8
same,fold induction at 50 µM,"[4]; planktonic A. baumannii, positive cutoff 3-fold increase, read-out: AK-based Prestwick library screening result, A. baumannii (fold increase in extracellular AK activity)",0.8
same,fold induction at 50 µM,"[5]; planktonic P. aeruginosa, positive cutoff 3-fold increase, read-out: AK-based Prestwick library screening result, P. aeruginosa (fold increase in extracellular AK activity)",0.9
same,fold induction at 50 µM,"[6]; planktonic E. cloacae, positive cutoff 3-fold increase, read-out: AK-based Prestwick library screening result, E. cloacae (fold increase in extracellular AK activity)",1.1
same,fold induction at 50 µM,"[7]; planktonic E. coli, positive cutoff 3-fold increase, read-out: AK-based Prestwick library screening result, E. coli (fold increase in extracellular AK activity)",0.9
Bromocryptine mesylate,"AK-based Prestwick Library Screening Results, E. faecium (increase in extracellular AK activity)","[1]; 384-well format, […]",0.9
same,"AK-based Prestwick Library Screening Results, S. aureus (increase in extracellular AK activity)","[2]; 384-well format, […]",0.6
same,"AK-based Prestwick Library Screening Results, K. pneumoniae (increase in extracellular AK activity)","[3]; 384-well format, […]",1.1
same,"AK-based Prestwick Library Screening Results, A. baumannii (increase in extracellular AK activity)","[4]; 384-well format, […]",1.4
same,"AK-based Prestwick Library Screening Results, P. aeruginosa (increase in extracellular AK activity)","[5]; 384-well format, […]",1.1
same,"AK-based Prestwick Library Screening Results, E. cloacae (increase in extracellular AK activity)","[6]; 384-well format, […]",1.4
same,"AK-based Prestwick Library Screening Results, E. coli (increase in extracellular AK activity)","[7]; 384-well format, […]",1.3
COc1ccc2c(OC)c3ccoc3nc2c1OC [Skimmianine],fold induction at 50 µM,"[1]; planktonic, […], read-out: AK-based Prestwick Library Screening Results, E. faecium (fold increase in extracellular AK activity)",0.6
same,fold induction at 50 µM,"[2]; planktonic, […], read-out: AK-based Prestwick Library Screening Results, S. aureus (fold increase in extracellular AK activity)",0.6
same,fold induction at 50 µM,"[3]; planktonic, […], read-out: AK-based Prestwick Library Screening Results, K. pneumoniae (fold increase in extracellular AK activity)",0.5
same,fold induction at 50 µM,"[4]; planktonic, […], read-out: AK-based Prestwick Library Screening Results, A. baumannii (fold increase in extracellular AK activity)",0.5
same,fold induction at 50 µM,"[5]; planktonic, […], read-out: AK-based Prestwick Library Screening Results, P. aeruginosa (fold increase in extracellular AK activity)",0.6
same,fold induction at 50 µM,"[6]; planktonic, […], read-out: AK-based Prestwick Library Screening Results, E. cloacae (fold increase in extracellular AK activity)",1.1
same,fold induction at 50 µM,"[7]; planktonic, […], read-out: AK-based Prestwick Library Screening Results, E. coli (fold increase in extracellular AK activity)",0.6
NCCc1cc[nH]n1 [Betazole hydrochloride],fold induction at 50 µM,"[1]; 384-well format, cutoff for positive-scoring molecules 3-fold increase, read-out: AK-based Prestwick Library Screening Results, E. faecium (increase in extracellular AK activity)",1
same,fold induction at 50 µM,"[2]; 384-well format, cutoff for positive-scoring molecules 3-fold increase, read-out: AK-based Prestwick Library Screening Results, S. aureus (increase in extracellular AK activity)",1.2
same,fold induction at 50 µM,"[3]; 384-well format, cutoff for positive-scoring molecules 3-fold increase, read-out: AK-based Prestwick Library Screening Results, K. pneumoniae (increase in extracellular AK activity)",0.9
same,fold induction at 50 µM,"[4]; 384-well format, cutoff for positive-scoring molecules 3-fold increase, read-out: AK-based Prestwick Library Screening Results, A. baumannii (increase in extracellular AK activity)",1.2
same,fold induction at 50 µM,"[5]; 384-well format, cutoff for positive-scoring molecules 3-fold increase, read-out: AK-based Prestwick Library Screening Results, P. aeruginosa (increase in extracellular AK activity)",1
same,fold induction at 50 µM,"[6]; 384-well format, cutoff for positive-scoring molecules 3-fold increase, read-out: AK-based Prestwick Library Screening Results, E. cloacae (increase in extracellular AK activity)",1.4
same,fold induction at 50 µM,"[7]; 384-well format, cutoff for positive-scoring molecules 3-fold increase, read-out: AK-based Prestwick Library Screening Results, E. coli (increase in extracellular AK activity)",1.3
Cn1c(-c2ccc3c(c2)OCO3)cc(=O)c2ccccc21 [Graveoline],fold induction at 50 µM,"[1]; planktonic, cutoff for positive-scoring molecules 3-fold increase, read-out: AK-based Prestwick Library Screening Results, E. faecium (fold increase in extracellular AK activity)",0.8
same,fold induction at 50 µM,"[2]; planktonic, cutoff for positive-scoring molecules 3-fold increase, read-out: AK-based Prestwick Library Screening Results, S. aureus (fold increase in extracellular AK activity)",0.7
same,fold induction at 50 µM,"[3]; planktonic, cutoff for positive-scoring molecules 3-fold increase, read-out: AK-based Prestwick Library Screening Results, K. pneumoniae (fold increase in extracellular AK activity)",0.6
same,fold induction at 50 µM,"[4]; planktonic, cutoff for positive-scoring molecules 3-fold increase, read-out: AK-based Prestwick Library Screening Results, A. baumannii (fold increase in extracellular AK activity)",0.8
same,fold induction at 50 µM,"[5]; planktonic, cutoff for positive-scoring molecules 3-fold increase, read-out: AK-based Prestwick Library Screening Results, P. aeruginosa (fold increase in extracellular AK activity)",0.8
same,fold induction at 50 µM,"[6]; planktonic, cutoff for positive-scoring molecules 3-fold increase, read-out: AK-based Prestwick Library Screening Results, E. cloacae (fold increase in extracellular AK activity)",1.2
same,fold induction at 50 µM,"[7]; planktonic, cutoff for positive-scoring molecules 3-fold increase, read-out: AK-based Prestwick Library Screening Results, E. coli (fold increase in extracellular AK activity)",0.8
Cc1cc2nc3c(=O)[nH]c(=O)nc-3n(C[C@H](O)[C@H](O)[C@H](O)CO)c2cc1C [Riboflavine],fold induction at 50 µM,[1]; [8],1
same,fold induction at 50 µM,[2]; [9],0.9
same,fold induction at 50 µM,[3]; [10],1.6
same,fold induction at 50 µM,[4]; [11],1.2
same,fold induction at 50 µM,[5]; [12],1.2
same,fold induction at 50 µM,[6]; [13],1.5
same,fold induction at 50 µM,[7]; [14],1.1
